Assay results: paper PMC6769532 (International Journal of Molecular Sciences, 2019)

T1: Riboflavin transporter 2 (RFVT2) (Homo sapiens, UniProt Q9HAB3)
T1 construct: gene SLC52A2; hRFVT2 carrying an N-terminal 6-Histidine tag
T1 sequence (Q9HAB3 1-445): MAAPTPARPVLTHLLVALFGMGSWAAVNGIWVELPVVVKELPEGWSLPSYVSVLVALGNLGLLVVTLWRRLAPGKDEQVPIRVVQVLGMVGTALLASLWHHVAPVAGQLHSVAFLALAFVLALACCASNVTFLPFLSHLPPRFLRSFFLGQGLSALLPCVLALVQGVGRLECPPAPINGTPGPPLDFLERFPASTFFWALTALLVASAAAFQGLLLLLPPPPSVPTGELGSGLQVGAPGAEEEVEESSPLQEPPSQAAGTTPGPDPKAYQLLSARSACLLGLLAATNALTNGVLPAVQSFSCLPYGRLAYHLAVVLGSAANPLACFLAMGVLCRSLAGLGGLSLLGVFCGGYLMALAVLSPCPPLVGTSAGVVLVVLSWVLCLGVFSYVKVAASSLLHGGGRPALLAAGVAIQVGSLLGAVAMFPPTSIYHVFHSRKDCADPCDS


Experiments:
[1] = target: T1, Riboflavin transporter 2 (RFVT2); assay: inhibition of [3H]riboflavin uptake in proteoliposomes with purified recombinant RFVT2, dose-response; format: biochemical
[2] = substrate: Cc1cc2nc3c(=O)[nH]c(=O)nc-3n(C[C@H](O)[C@H](O)[C@H](O)CO)c2cc1C; assay: purified protein

IC50 [1]	Molecule	Km [2]
3.3 ± 0.8 µM	Cc1cc2nc3c(=O)[nH]c(=O)nc-3n(C[C@H](O)[C@H](O)[C@H](O)COP(=O)(O)O)c2cc1C [FMN]	–
–	Riboflavin transporter 2 (RFVT2) (Homo sapiens) (protein) MAAPTPARPVLTHLLVALFGMGSWAAVNGIWVELPVVVKELPEGWSLPSYVSVLVALGNLGLLVVTLWRRLAPGKDEQVPIRVVQVLGMVGTALLASLWHHVAPVAGQLHSVAFLALAFVLALACCASNVTFLPFLSHLPPRFLRSFFLGQGLSALLPCVLALVQGVGRLECPPAPINGTPGPPLDFLERFPASTFFWALTALLVASAAAFQGLLLLLPPPPSVPTGELGSGLQVGAPGAEEEVEESSPLQEPPSQAAGTTPGPDPKAYQLLSARSACLLGLLAATNALTNGVLPAVQSFSCLPYGRLAYHLAVVLGSAANPLACFLAMGVLCRSLAGLGGLSLLGVFCGGYLMALAVLSPCPPLVGTSAGVVLVVLSWVLCLGVFSYVKVAASSLLHGGGRPALLAAGVAIQVGSLLGAVAMFPPTSIYHVFHSRKDCADPCDS	0.26 ± 0.07 µM
